The values below come from publication PMC6941357, “An in vitro toolbox to accelerate anti-malarial drug discovery and development” (Malaria Journal, 2020).

Values after ≈ are worked out from the molar mass of the structure shown. Values joined by “and” are separate entries in the source; they are usually repeats but may differ in a detail not shown here. Equal values may be shown once. Some results are limits rather than exact numbers.

One data set can be described thus: in vitro. The settings on record: human, microsomes. The method, then: The metabolic stability assay was adapted from a previously published method. […] Reactions were quenched at 2, 5, 15, 30 and 60 min by the addition of acetonitrile containing 150 ng/mL diazepam as internal standard. Control samples (containing no cofactor) were included (quenched at 2, 30 and 60 min) to monitor degradation in the absence of cofactor. Concentrations were determined by LC–MS (Additional file 1: Table S2) by comparison to the response for a single point calibration standard prepared in quenched microsomal matrix.
Test compound concentration versus time data were fit using an exponential decay function to determine the first-order rate constant for substrate depletion. Where deviation from first-order kinetics was evident, only the initial linear portion of the logarithmic profile was utilized to determine the initial degradation rate constant (k, min^−1). Each substrate depletion rate constant was then used to calculate the in vitro intrinsic clearance value (CLint, in vitro, µL/min/mg protein) using Eq.
Unbound in vitro CLint values were obtained by dividing the measured CLint by the measured fu in microsomes.

Another data set concerns human liver microsomes. The settings on record: microsomal protein 0.5 mg/mL; ref [23]–[28] of Additional file 1; cited from earlier work.
Data set [1] is described as follows: Bidirectional permeability across Caco-2 cell monolayers. The settings on record: human. The method, then: Bidirectional permeability was assessed across Caco-2 cell monolayers as described previously. Briefly, permeability experiments were performed using either aqueous transport buffer (pH 7.4 Hanks balanced salt solution containing 20 mM HEPES) or human plasma (Australian Red Cross Blood Service) in both the apical and basolateral chambers. […] The final DMSO concentration in the donor solution was 0.1% v/v.
Samples from the donor chamber were taken at the start and end of the experiment. […] Donor and acceptor samples were stored frozen at − 80 °C until analysis by LC–MS (Additional file 1: Table S2) with sample preparation as described previously. The mass balance and apparent permeability coefficient (Papp) were calculated as previously described.
Where human plasma was used as the transport medium, Papp values were calculated as shown above, with correction for the fraction unbound (fu) in the donor solution Cdonorinitial×fu with fu determined at a similar concentration to that used in the transport experiment. The apparent flux of lucifer yellow was based on an endpoint measurement assuming no lag time. The efflux ratio was calculated as the ratio of the mean B–A to A–B Papp values.
For orientation: Passage across Caco-2 layers is used to estimate intestinal permeability.

A short description of data set [2]: Solubility limited absorbable dose (SLAD) calculation with predicted human jejunal Peff. An excerpt: Predicted Peff values were obtained from a calibration plot of literature Peff values vs measured Caco-2 Papp using either buffer or plasma as the transport medium (see Results section).
The conditions of data set [3]: human; cited from earlier work.
Data set [4] can be described thus: Octanol/pH 7.4 buffer partition coefficient, shake flask. The settings on record: octanol/pH 7.4 phosphate buffered saline, pH 7.4. The method, then: Partition coefficients between octanol and pH 7.4 buffer were measured using a shake flask method. A stock solution of test compound in octanol was prepared at a concentration between 3 and 30 mg/mL based on the expected partition coefficient value. This stock solution was then diluted 3- and 10-fold with octanol and used to prepare the octanol phase for the partitioning experiments. Two different dilutions were used to confirm that there were no saturation effects. Phosphate buffered saline was prepared by combining 67 mM disodium hydrogen orthophosphate and sodium dihydrogen orthophosphate (both prepared in 43 mM NaCl) to a final pH of 7.4.
Partitioning experiments were conducted by mixing equal volumes of the octanol (containing test compound) and aqueous phases and placing on a vibrating plate mixer in an incubator at 37 °C. […] An aliquot of the aqueous phase was carefully removed and centrifuged again to ensure no contamination from the octanol phase before sampling in duplicate and diluting with aqueous methanol for analysis. Diluted samples were analysed by LC–MS along with calibration standards (Additional file 1: Table S2) and partition coefficients were calculated from the ratio of the mean octanol to buffer concentration after accounting for the dilution factors. The partitioning results for the two time points were used to confirm that the partitioning experiment had reached equilibrium.

Data set [5] in a line: Solubility in biorelevant media. As for the experimental part:
Solubility of each active pharmaceutical ingredient was evaluated at 37 °C in pH 7.4 phosphate buffered saline (prepared as described for the partitioning experiments), fasted (FaSSIF-V2) and fed (FeSSIF-V2) state simulated intestinal fluids and fasted state simulated gastric fluid (FaSSGF) as described by Jantratid et al.. […] Samples were vortexed and placed in a 37 °C incubator on an orbital mixer (IKA® VXR basic Vibrax® orbital mixer) set at 600 rpm. Sampling times were 1 h for FaSSGF or 5–6 h for FaSSIF-V2, FeSSIF-V2, and PBS. These times were used to reflect the maximal likely residence times within the stomach and small intestine, respectively. Sampling was carried out by centrifuging each sample at 10,000 rpm for 3 min, transferring 300 µL aliquots into fresh Eppendorf tubes and centrifuging these tubes again at 10,000 rpm for 3 min. Triplicate aliquots of the supernatant were then removed and diluted 1:2 in 50% aqueous methanol and then again in 50% aqueous acetonitrile to be within the analytical concentration range. Samples were analysed by LC–MS along with calibration standards (Additional file 1: Table S2).

The term microsomal CLint denotes the capacity of the preparation to metabolise the compound, expressed as a volume cleared per time. A low value points to greater metabolic stability. Take `CCOc1ccc(NC(C)=O)cc1` [phenacetin]: the microsomal CLint at 1 µM in “in vitro” (pH 7.4, Mean CLint) was 21.4 µL/min/mg; in “in vitro” (pH 7.4, Range HLM CLint), 13.3 to 31.1 µL/min/mg. For the same compound, in the data set with human liver microsomes, the “Literature CLint” value is 27 µL/min/mg and 22.2 µL/min/mg.
A word on the Papp B→A: it is how fast a substance crosses the layer from the basolateral side. As a reminder, the Papp A→B is the apparent permeability from the apical to the basolateral side of a cell layer. Higher therefore signals ready permeation. For orientation: solubility means how much of the substance goes into solution per volume. A word on the logD: it is lipophilicity at a set pH, counting ionised and neutral species. `c1cc([C@H]2CC[C@]3(CC2)OO[C@]2(O3)C3CC4CC(C3)CC2C4)ccc1OCCN1CCOCC1` [OZ439] returned an apparent permeability from basolateral to apical (Papp B→A) in data set [1] (Caco-2) of more than 300 ×10⁻⁶ cm/s. For the same compound, the apical-to-basolateral permeability (Papp A→B) in data set [1] (Caco-2, A–B Papp, matrix: human plasma, corrected for fu) is more than 300 ×10⁻⁶ cm/s. For the same compound, the solubility in data set [2] (FaSSIF) is 40.6 µg/mL (≈ 86.5 µM); in data set [5] (FaSSIF-V2, 37 °C, fassif, thermodynamic from solid) it was 40.6 µg/mL and 87 µM; in data set [5] (FeSSIF-V2, 37 °C, fessif, thermodynamic from solid), 526 µg/mL and 1120 µM; in data set [5] (phosphate buffered saline pH 7.4, 37 °C, pH 7.4, aqueous buffer, thermodynamic from solid), 0.085 µg/mL and 0.181 µM. Besides, the “An (absorption number)” value in data set [2] (Peff × tres/R, minimum 1) is recorded as 13. Moreover, the SLAD in data set [2] (Ssi × V (500 mL) × Mp) is on record as 270 mg. Moreover, the “Predicted human Peff” value in data set [2] (from Caco-2 Papp via calibration plot) is 11 10^−4 cm/s. For the same compound, the Food effect entry in data set [3] is listed as “yes”. For the same compound, the V/F in data set [3] is 1570 L. The log distribution coefficient (logD) in data set [4] is more than 5. Further, in data set [5] (FaSSGF), the FaSSGF solubility turned out to be 79 µg/mL. Besides, in data set [5] (FaSSGF, 37 °C, fassgf or other biorelevant, thermodynamic from solid), the solubility at 1 h was 79 µg/mL and 168 µM. The FaSSIF solubility in data set [5] (FaSSIF) amounted to 40.6 µg/mL.
For `Cc1ncc2n1-c1ccc(Cl)cc1C(c1ccccc1F)=NC2` [midazolam], the intrinsic metabolic clearance (microsomal CLint) at 1 µM was 272 µL/min/mg in the data set “in vitro” (pH 7.4, Mean CLint, control compounds, mean (S.D.)) and 240 to 300 µL/min/mg in the data set “in vitro” (pH 7.4, Range HLM CLint, control compounds, 6–21 independent measurements, 0.4 mg/mL). In addition, in the data set on human liver microsomes, the “Literature CLint” value was 353 µL/min/mg and 178 µL/min/mg and 287 µL/min/mg.
